Patent publication US20050191247A1, “Chlorhexidine compositions” (priority 2004, published 2005)
Where two headings read alike, the source gives them in different places. Peptide text beside a SMILES is read from it.

What was measured:
[1] = system: Suspensions of S. mutans; assay: Bactericidal activity in suspensions of S. mutans; format: cell-based, Streptococcus mutans; settings: within one hour of incubation; buffer control 10^6 cfu/ml
[2] = system: Streptococcus mutans biofilms; assay: Test A: bactericidal activity in bacterial biofilm system; format: cell-based; settings: flavoring or sweetening agent added to chlorhexidine composition
Protocol: Rinse formulations were assessed for their bactericidal activity in a laboratory bacterial biofilm system. Streptococcus mutans biofilms were grown on slides in Trypticase Soy Broth supplemented with 0.5% Yeast Extract (TSB-YE), 1.0% glucose and 2.0% sucrose, and incubated for 48 hr in 5% CO2 at 37° C. Biofilms were exposed to the different formulations for 30 seconds with slow stirring. Biofilms were then extensively washed, harvested, and resuspended in fresh media. Samples were spiral-plated on Mitis-Salivarius agar. Numbers of viable bacteria were determined following standard spiral plating methodology.
The first series of experiments explored the effect of combinations of chlorhexidine-Cu^++ and chlorhexidine-Zn^++ on biofilms of Streptococcus mutans. The chlorhexidine (CHX) used in the experiments depicted in FIG. 1 was made by diluting a chlorhexidine gluconate stock solution (Chlorhexidine gluconate 20% solution, B.P. supplied by Medisca, Inc., 661 Route #3, Unit C, Plattsburg, N.Y. 12901. Telephone 1-800-932-1039) with ultrapure water to form a 0.12% chlorhexidine digluconate solution. […]
Biofilms of S. mutans were made by immersing slides in Trypticase Soy Broth-Yeast Extract (TSB-YE) supplemented with 1.0% glucose and 2.0% sucrose. […] Numbers of viable cells were determined by standard Spiral-plating methodology. […]

[3] = cited from earlier work
[4] = system: S. mutans; assay: Test B: effect on ability of S. mutans to produce acid (culture pH over time); format: cell-based, Streptococcus mutans; settings: chlorhexidine 0.06%, cupric acetate and zinc chloride 0.1% w/v; TSB-YE with 1.0% glucose
Protocol: Some oral bacteria are believed to cause cavities by producing acid in the mouth. Therefore, the ability of a composition to prevent and treat cavities can be measured by determining its effects on bacterial acid production.
Accordingly, the effect of representative compositions on the ability of S. mutans to produce acid was also assessed. Biofilms were exposed to CHX-Cu^++ or CHX-Zn^++ as described, then washed, harvested, and resuspended in sterile TSB-YE supplemented with 1.0% glucose at standardized concentrations. Changes in culture pH were measured over time. Representative results of these studies are illustrated in FIG. 3.
The chlorhexidine (CHX) used in the experiments depicted in FIG. 3 was made by diluting a chlorhexidine gluconate stock solution (Chlorhexidine gluconate 20% solution, B.P. supplied by Medisca, Inc., 661 Route #3, Unit C, Plattsburg, N.Y. 12901. Telephone 1-800-932-1039) with ultrapure water to form a 0.12% chlorhexidine digluconate solution. This strength mimics the concentration of chlorhexidine gluconate found in commercial rinses (Peridex®—Zila Pharmaceuticals 5227 N. 7th Street, Phoenix, Ariz. 85014. Telephone (602) 266-6700) available in the United States.
Chlorhexidine was at a concentration of 0.06%, and cupric acetate and zinc chloride were at concentrations of 0.1% w/v. Exposure of chlorhexidine alone had little effect on acid production. […]

[5] = 0.12% rinse; Drug Facts and Comparisons, 1999; cited from earlier work

N=C(NCCCCCCNC(=N)NC(=N)Nc1ccc(Cl)cc1)NC(=N)Nc1ccc(Cl)cc1.O=C(O)[C@H](O)[C@@H](O)[C@H](O)[C@H](O)CO.O=C(O)[C@H](O)[C@@H](O)[C@H](O)[C@H](O)CO [Chlorhexidine gluconate (0.12% CHX)]
viable count after exposure [1]: 0 cfu/ml

COC(=O)[C@H](Cc1ccccc1)NC(=O)[C@@H](N)CC(=O)O [aspartame] (HELM PEPTIDE1{D.F.[CO[*:1]]}$$$$V2.0)
effect of additive on the antibacterial activity of the chlorhexidine oral composition [2]: do not significantly decrease | solubility in water ([3]; 20° C.): approximately 1% | solubility in water ([3]; 50° C.): ~3%

[H]/N=C(\N/C(=N/[H])NCCCCCCNC(=N)NC(=N)Nc1ccc(Cl)cc1)Nc1ccc(Cl)cc1 [chlorhexidine]
effect on acid production (pH curves) [4]: little effect | chlorhexidine retained in the oral cavity following rinsing [5]: Approximately 30%
